The values that follow come from EP4752152A1, “STEROID COMPOUND, AND PREPARATION METHOD THEREFOR AND USE THEREOF” (Cholesgen (Shanghai) Co.Ltd., priority 2023, dated 2025).

The IC50 is the concentration at which inhibition is half-maximal.

Molecules are shown by their SMILES.

For one test, the system named is SREBP pathway. Nature of the test: SREBP luciferase reporter gene system (SRE-luciferase assay). Type of test: cell-based, human. To be noted: Homo sapiens, Huh-7, 16 h, Huh-7/SRE-luc cells, sterol-deficient medium, 0.01-10 µM. The method, boiled down: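 Readout was SRE-driven luciferase normalised to GFP fluorescence in lysates of stably transfected Huh-7/SRE-luc hepatoma cells. Compounds (0.01, 0.03, 0.1, 0.3, 1.0, 3.0, 10 µM; DMSO control) were applied for 16 h in sterol-depleted medium with 2 µM lovastatin and 10 µM mevalonate; IC50 from variable-slope fit.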
On the technique in general: Reporter assays use an easily measured gene product as a stand-in for the process of interest.
As to `C[C@H](CCC[C@@H](O)c1nn(C)c2ccccc12)[C@H]1CC[C@H]2[C@H]3[C@H](CC[C@]12C)[C@@]1(C)CC[C@H](O)[C@H](O)[C@@H]1CC3(F)F` [Compound 324, (1R,3aS,3bS,5aR,6R,7S,9aR,9bS,11aR)-4,4-difluoro-1-[(2R,6R)-6-hydroxy-6-(1-methylindazol-3-yl)hexan-2-yl]-9a,11a-dimethylhexadecahydro-1H-cyclopenta[1,2-a]phenanthrene-6,7-diol], the IC50 was found to be 1.51 µM.

For `COc1cccc(F)c1[C@H](O)CCC[C@@H](C)[C@H]1CC[C@H]2[C@H]3[C@H](CC[C@]12C)[C@@]1(C)CC[C@H](O)C[C@@H]1CC3(F)F` (single isomer, unassigned) [Compound 315], the IC50 was 0.125 µM.

As for `COc1nc(F)ccc1[C@@](C)(O)CCC[C@@H](C)[C@H]1CC[C@H]2[C@H]3[C@H](CC[C@]12C)[C@@]1(C)CC[C@H](O)[C@H](O)[C@@H]1CC3(F)F` [Compound 309, (1R,3aS,3bS,5aR,6R,7S,9aR,9bS,11aR)-4,4-difluoro-1-[(2R,6S)-6-(6-fluoro-2-methoxypyridin-3-yl)-6-hydroxyheptan-2-yl]-9a,11a-dimethylhexadecahydro-1H-cyclopenta[1,2-a]phenanthrene-6,7-diol], the IC50 worked out at 0.143 µM.

In the case of `COc1cc(F)cc(OC)c1C(O)CCC[C@@H](C)[C@H]1CC[C@H]2[C@H]3[C@H](CC[C@]12C)[C@@]1(C)CC[C@H](O)[C@H](O)[C@@H]1CC3(F)F` (single isomer, unassigned) [Compound 222, (1R,3aS,3bS,5aR,6R,7S,9aR,9bS,11aR)-4,4-difluoro-1-[(2R,6S)-6-(4-fluoro-2,6-dimethoxyphenyl)-6-hydroxyhexan-2-yl]-9a,11a-dimethylhexadecahydro-1H-cyclopenta[1,2-a]phenanthrene-6,7-diol or (1R,3aS,3bS,5aR,6R,7S,9aR,9bS,11aR)-4,4-difluoro-1-[(2R,6R)-6-(4-fluoro-2,6-dimethoxyphenyl)-6-hydroxyhexan-2-yl]-9a,11a-dimethylhexadecahydro-1H-cyclopenta[1,2-a]phenanthrene-6,7-diol], the IC50 turned out to be 0.137 µM.

For the compound `COc1cc(F)ccc1C(N)CCC[C@@H](C)[C@H]1CC[C@H]2[C@H]3[C@H](CC[C@]12C)[C@@]1(C)CC[C@H](O)[C@H](O)[C@@H]1CC3(F)F` (stereo partly drawn) [Compound 156, (1R,3aS,3bS,5aR,6R,7S,9aR,9bS,11aR)-1-[(2R)-6-amino-6-(4-fluoro-2-methoxyphenyl)hexan-2-yl]-4,4-difluoro-9a,11a-dimethylhexadecahydro-1H-cyclopenta[1,2-a]phenanthrene-6,7-diol], the IC50 came to 1.32 µM.

For the compound `C[C@H](CCCC(O)c1cccc2nnn(C)c12)[C@H]1CC[C@H]2[C@H]3[C@H](CC[C@]12C)[C@@]1(C)CC[C@H](O)[C@H](O)[C@@H]1CC3(F)F` (stereo partly drawn) [Compound 271, (1R,3aS,3bS,5aR,6R,7 S,9aR,9bS,11aR)-4,4-Difluoro-1-[(2R)-6-hydroxy-6-(3-methylbenzo[d][1,2,3]triazol-4-yl)hexan-2-yl]-9a,11a-dimethylhexadecahyd ro-1H-cyclopenta[1,2-a]phenanthrene-6,7-diol], the IC50 is 0.207 µM.

In the case of `COc1ccc(F)cc1[C@@H](O)CCC[C@@H](C)[C@H]1CC[C@H]2[C@H]3[C@H](CC[C@]12C)[C@@]1(C)CC[C@H](O)[C@H](O)[C@@H]1CC3(F)F` [Compound 168, (1R,3aS,3bS,5aR,6R,7S,9aR,9bS,11aR)-4,4-difluoro-1-[(2R,6S)-6-(5-fluoro-2-methoxyphenyl)-6-hydroxyhexan-2-yl]-9a,11a-dimethylhexadecahydro-1H-cyclopenta[1,2-a]phenanthrene-6,7-diol], the IC50 was determined as 0.092 µM.

Turning to `C[C@H](CCC(=O)N(C)c1ccccc1F)[C@H]1CC[C@H]2[C@@H]3CC[C@H]4[C@@H](O)[C@@H](O)CC[C@]4(C)[C@H]3CC[C@]12C` [Compound 47, (3S,4R,5R,8S,9S,10R,13R,14S,17R,20R)-N-(2-fluorophenyl)-3,4-dihydroxy-N-methyl-5α-cholan-24-amide], the IC50 stood at 0.05 µM.

With `COc1ccc(F)cc1[C@H](O)CCC[C@@H](C)[C@H]1CC[C@H]2[C@H]3[C@H](CC[C@]12C)[C@@]1(C)CC[C@H](O)[C@H](O)[C@@H]1CC3(F)F` [Compound 169, (1R,3aS,3bS,5aR,6R,7S,9aR,9bS,11aR)-4,4-difluoro-1-[(2R,6R)-6-(5-fluoro-2-methoxyphenyl)-6-hydroxyhexan-2-yl]-9a,11a-dimethylhexadecahydro-1H-cyclopenta[1,2-a]phenanthrene-6,7-diol], the IC50 is 0.075 µM.

In the case of `C[C@H](CCCC(O)c1ncco1)[C@H]1CC[C@H]2[C@H]3[C@H](CC[C@]12C)[C@@]1(C)CC[C@H](O)[C@H](O)[C@@H]1CC3(F)F` (stereo partly drawn) [Compound 99, (1R,3aS,3bS,5aR,6R,7S,9aR,9bS,11aR)-4,4-difluoro-1-[(2R)-6-hydroxy-6-(1,3-oxazol-2-yl)hexan-2-yl]-9a,11a-dimethylhexadecahydro-1H-cyclopenta[1,2-a]phenanthrene-6,7-diol], the IC50 amounted to 0.243 µM.

As for `COc1nc(C)ccc1C(O)CCC[C@@H](C)[C@H]1CC[C@H]2[C@H]3[C@H](CC[C@]12C)[C@@]1(C)CC[C@H](O)[C@H](O)[C@@H]1CC3(F)F` (single isomer, unassigned) [Compound 217, (1R,3aS,3bS,5aR,6R,7S,9aR,9bS,11aR)-4,4-difluoro-1-[(2R,6S)-6-hydroxy-6-(2-methoxy-6-methylpyridin-3-yl)hexan-2-yl]-9a,11a-dimethylhexadecahydro-1H-cyclopenta[1,2-a]phenanthrene-6,7-diol or (1R,3aS,3bS,5aR,6R,7S,9aR,9bS,11aR)-4,4-difluoro-1-[(2R,6R)-6-hydroxy-6-(2-methoxy-6-methylpyridin-3-yl)hexan-2-yl]-9a,11a-dimethylhexadecahydro-1H-cyclopenta[1,2-a]phenanthrene-6,7-diol], the IC50 turned out to be 0.21 µM.

For `COc1ncc(F)cc1C(O)CCC[C@@H](C)[C@H]1CC[C@H]2[C@H]3[C@H](CC[C@]12C)[C@@]1(C)CC[C@H](O)[C@H](O)[C@@H]1CC3(F)F` (stereo partly drawn) [Compound 151, (1R,3aS,3bS,5aR,6R,7S,9aR,9bS,11aR)-4,4-difluoro-1-[(2R)-6-(5-fluoro-2-methoxypyridin-3-yl)-6-hydroxyhexan-2-yl]-9a,11a-dimethylhexadecahydro-1H-cyclopenta[1,2-a]phenanthrene-6,7-diol], the IC50 stood at 0.18 µM.

For the compound `COc1cccc(F)c1[C@H](F)CCC[C@@H](C)[C@H]1CC[C@H]2[C@H]3[C@H](CC[C@]12C)[C@@]1(C)CC[C@H](O)[C@H](O)[C@@H]1CC3(F)F` (single isomer, unassigned) [Compound 216], the IC50 came to 2.65 µM.

For `COc1nccnc1[C@@H](O)CCC[C@@H](C)[C@H]1CC[C@H]2[C@H]3[C@H](CC[C@]12C)[C@@]1(C)CC[C@H](O)[C@H](O)[C@@H]1CC3(F)F` [Compound 155, (1R,3aS,3bS,5aR,6R,7S,9aR,9bS,11aR)-4,4-difluoro-1-[(2R,6S)-6-hydroxy-6-(3-methoxypyrazin-2-yl)hexan-2-yl]-9a,11a-dimethylhexadecahydro-1H-cyclopenta[1,2-a]phenanthrene-6,7-diol], the IC50 came to 0.188 µM.

The same test, now with this note: Huh-7/SRE-luc cells, sterol-deficient medium, 16 hours, 0.01-10 µM.
With `COc1ccnc(OC)c1C(O)CCC[C@@H](C)[C@H]1CC[C@H]2[C@H]3[C@H](CC[C@]12C)[C@@]1(C)CC[C@H](O)[C@H](O)[C@@H]1CC3(F)F` (single isomer, unassigned) [Compound 172, (1R,3aS,3bS,5aR,6R,7S,9aR,9bS,11aR)-1-[(2R,6R)-6-(2,4-dimethoxypyridin-3-yl)-6-hydroxyhexan-2-yl]-4,4-difluoro-9a,11a-dimethylhexadecahydro-1H-cyclopenta[1,2-a]phenanthrene-6,7-diol or (1R,3aS,3bS,5aR,6R,7S,9aR,9bS,11aR)-1-[(2R,6S)-6-(2,4-dimethoxypyridin-3-yl)-6-hydroxyhexan-2-yl]-4,4-difluoro-9a,11a-dimethylhexadecahydro-1H-cyclopenta[1,2-a]phenanthrene-6,7-diol], the IC50 worked out at 0.113 µM.

As to `C[C@H](CCCC(O)c1ccc2c(c1)OC(F)(F)O2)[C@H]1CC[C@H]2[C@H]3[C@H](CC[C@]12C)[C@@]1(C)CC[C@H](O)[C@H](O)[C@@H]1CC3(F)F` (single isomer, unassigned) [Compound 259, (1R,3aS,3bS,5aR,6R,7S,9aR,9bS,11aR)-1-[(2R,6R)-6-(2,2-difluorobenzo[d][1,3]dioxol-5-yl)-6-hydroxyhexan-2-yl]-4,4-difluoro-9a,11a-dimethylhexadecahydro-1H-cyclopenta[1,2-a]phenanthrene-6,7-diol or (1R,3aS,3bS,5aR,6R,7S,9aR,9bS,11aR)-1-[(2R,6S)-6-(2,2-difluorobenzo[d][1,3]dioxol-5-yl)-6-hydroxyhexan-2-yl]-4,4-difluoro-9a,11a-dimethylhexadecahydro-1H-cyclopenta[1,2-a]phenanthrene-6,7-diol], the IC50 was 0.249 µM.

For the compound `C[C@H](CCCC(O)c1cccc2c1nnn2C)[C@H]1CC[C@H]2[C@H]3[C@H](CC[C@]12C)[C@@]1(C)CC[C@H](O)[C@H](O)[C@@H]1CC3(F)F` (single isomer, unassigned) [Compound 291, (1R,3aS,3bS,5aR,6R,7S,9aR,9bS,11aR)-4,4-difluoro-1-[(2R,6R)-6-hydroxy-6-(1-methylbenzo[d][1,2,3]triazol-4-yl)hexan-2-yl]-9a,11a-dimethylhexadecahydro-1H-cyclopenta[1,2-a]phenanthrene-6,7-diol or (1R,3aS,3bS,5aR,6R,7S,9aR,9bS,11aR)-4,4-difluoro-1-[(2R,6S)-6-hydroxy-6-(1-methylbenzo[d][1,2,3]triazol-4-yl)hexan-2-yl]-9a,11a-dimethylhexadecahydro-1H-cyclopenta[1,2-a]phenanthrene-6,7-diol], the IC50 worked out at 0.141 µM.
